In patent publication US8372971B2, “Heterocyclic compounds and methods of use” (TargeGen, Inc., priority 2004, dated 2013):
Counter-ions that a name gives are not always drawn.

Tests used:
[1] = molecular target: T1, raf1 with inactive MEK1 (Raf1-MEK1) (Homo sapiens, UniProt P04049); assay: Raf1-MEK1 assay (KinaseGlo); format: biochemical; conditions: for IC50: Raf-Mek, 3 uM ATP, read-out: RAF-MEK assay (biochemical assay)
T1 construct: purchased Upstate, Lake Placid, N.Y

[2] = tested on: p-MEK and p-ERK levels in HUVECs; assay: Western Blot, inhibition of MAPK pathway in cellular assay (Example 27); format: cell-based, human; conditions: for Western Blot: at 5 uM, 50 ng/ml VEGF or FGF
Protocol: (§1) Western Blot: Early passage primary human umbilical vein endothelial cells (HUVECs) were maintained in EGM-2 containing SingleQuots (Cambrex, East Rutherford, N.J.), 10% FBS, 10 mM HEPES, and 50 μg/ml gentamicin. Prior to treatment of the cells with inhibitor, the HUVECs were starved for 18 h by replacing serum-containing complete media with scrum-free and SingleQuot-free media. The starved cells were pre-treated with inhibitors for 60 min at various concentrations (0-20 μM). Next the HUVECs were treated with 50 ng/ml VEGF or FGF (Peprotech, Rocky Hill, N.J.) for 6 min and the cells were immediately washed with ice-cold PBS. Cells were lysed with ice-cold RIPA buffer containing 100 mM Tris pH 7.5, 150 mM NaCl, 1 mM EDTA, 1% deoxycholate, 1% Triton X-100, 0.1% SDS, 2 mM PMSF, one Complete-Mini protease inhibitor tablet (Roche, Indianapolis, Ind.; 1 tablet/7 ml of lysis buffer) and the phophatase inhibitors NaF (500 mM) and orthovanadate (1 mM). The cells were scraped and lysates transferred and centrifuged at 15,000 g for 10 min. Supernatants were transferred to new tubes and protein concentration was quantitated using the BCA protein reagent (Pierce, Rockford, Ill.). Cell lysates containing 20 μg of total protein were separated by 10% SDS-PAGE, transferred to nitrocellulose, and blocked in 5% milk in TBST. Anti phospho-ERK Thr 202/Tyr 204 (Cell Signaling, Beverly, Mass.), anti-phospho-MEK Ser217/221 (Cell Signaling), and c-Raf (BD Biosciences Pharmingen, San Diego, Calif.) used as primary antibodies were detected with horseradish peroxidase-conjugated goat anti-mouse or rabbit secondary antibodies and bands were visualized using the SuperSignal West Pico chemiluminescence reagent system (Pierce) and Kodak X-ray film (Rochester, N.Y.).

[3] = tested on: HUVECs; assay: XTT cell viability assay (Example 28); format: cell-based; conditions: Homo sapiens, HUVEC, 24-48 hours, read-out: Inhibition of HUVEC cell prolifiration (IC50)
Protocol: XTT assay: HUVECs were seeded at 10,000 cells/well of a tissue culture treated 96-well plate treated with collagen type I and grown overnight in the complete EGM-2 media as described above. The following morning, the inhibitors were serial diluted with DMSO and added to the cells with a final DMSO concentration of 1%. After 24-48 hours cell viability was measured with an XTT assay (Sigma, St. Louis, Mo.). The cells were also photographed to compare morphological differences to the XTT trends observed. Determination of the IC50 values was performed with quantitative software (Prism software package, GraphPad Software, San Diego Calif.).

[4] = molecular target: T2, recombinant human raf1 (Homo sapiens, UniProt P04049); assay: Raf1 direct kinase assay (KinaseGlo); format: biochemical; conditions: printed in the RAF-MEK column
T2 construct: purchased Upstate, Lake Placid, N.Y
T2 sequence (P04049 whole entry): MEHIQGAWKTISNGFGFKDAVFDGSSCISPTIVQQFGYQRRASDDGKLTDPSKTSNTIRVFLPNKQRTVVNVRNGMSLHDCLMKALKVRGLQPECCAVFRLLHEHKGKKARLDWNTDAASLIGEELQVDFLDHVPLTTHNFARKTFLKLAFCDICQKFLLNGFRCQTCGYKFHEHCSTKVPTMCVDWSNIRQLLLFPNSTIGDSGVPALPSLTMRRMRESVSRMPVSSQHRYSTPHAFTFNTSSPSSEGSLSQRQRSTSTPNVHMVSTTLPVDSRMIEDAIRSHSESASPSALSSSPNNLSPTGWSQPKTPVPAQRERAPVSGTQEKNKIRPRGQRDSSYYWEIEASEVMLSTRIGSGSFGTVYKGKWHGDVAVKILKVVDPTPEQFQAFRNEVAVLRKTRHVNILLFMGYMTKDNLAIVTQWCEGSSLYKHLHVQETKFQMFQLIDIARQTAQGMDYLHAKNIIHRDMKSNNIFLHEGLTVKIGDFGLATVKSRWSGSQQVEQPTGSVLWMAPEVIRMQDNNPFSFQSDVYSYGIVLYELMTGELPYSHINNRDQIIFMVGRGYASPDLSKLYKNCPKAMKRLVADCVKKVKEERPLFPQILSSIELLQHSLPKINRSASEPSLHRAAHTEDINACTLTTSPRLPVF
Protocol: The ability of compounds of general structure (A) of the present invention to inhibit the kinase activity of Raf1 was evaluated using two methods: a direct and a Raf1-MEK1 assay. In the direct assay, kinase reactions were conducted in 96-well plates by combining recombinant human raf1 (29.4 U/well, Upstate, Lake Placid, N.Y.), ATP (3 μM), myelin basic protein substrate (MBP, 1 mg/ml, Upstate, Lake Placid, N.Y.), and test agents (at concentrations ranging from about 1 nM/l to about 10 μM), in the presence of kinase reaction buffer. […] After reacting for 60 minutes at 30° C., residual ATP was measured using a luciferase-based assay (KinaseGlo, Promega Corp.) as a measure of kinase activity. Data from four wells were then averaged and used to determine IC50 values for the test compounds (Prism software package, GraphPad Software, San Diego Calif.).

[5] = tested on: p-MEK and p-ERK levels in HUVECs; assay: Western Blot, inhibition of MAPK pathway in cellular assay (Example 105); format: cell-based, human; conditions: VEGF or FGF
Protocol: as §1, with “Some compounds described by the general structure (B) were tested for inhibition of MAPK pathway in cellular assay. Western” for “Western”, “serum-free” for “scrum-free”, “main.” for “min.”

T1 sequence (P04049 306-648 limits assumed): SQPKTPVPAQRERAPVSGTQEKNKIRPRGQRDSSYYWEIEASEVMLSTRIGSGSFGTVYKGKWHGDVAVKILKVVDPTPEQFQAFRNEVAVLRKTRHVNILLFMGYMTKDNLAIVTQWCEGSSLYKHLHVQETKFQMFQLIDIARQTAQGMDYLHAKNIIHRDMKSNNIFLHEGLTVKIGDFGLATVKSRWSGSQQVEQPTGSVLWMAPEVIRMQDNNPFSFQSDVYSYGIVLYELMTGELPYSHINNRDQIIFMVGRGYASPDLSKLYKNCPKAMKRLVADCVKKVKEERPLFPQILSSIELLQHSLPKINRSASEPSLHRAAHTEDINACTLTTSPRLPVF

Compound | RAF-MEK assay (biochemical assay), result in words [1] | IC50 [1] | Western Blot [2] | other results
CNC(=O)c1cc(Oc2ccc3nc(NS(=O)(=O)c4ccccc4C(F)(F)F)nnc3c2)ccn1 [4-[2-(trifluoromethyl-benzenesulfonylamino)-benzo[1,2,4]triazin-7-yloxy]-pyridine-2-carboxylic acid methyl amide trifluoroacetate salt] | flat |  | not active at 5 uM | 
CNC(=O)c1cc(Oc2ccc3nc(NC(=O)c4cc(C(F)(F)F)cc(Cl)c4F)nnc3c2)ccn1 [4-[2-fluoro-3-chloro-5-trifluoromethyl-benzoylamino)-benzo[1,2,4]triazin-7-yloxy]-pyridine-2-carboxylic acid methyl amide trifluoroacetate salt] |  | 723 nM | not active at 5 uM | window [1]: ~30%
CNC(=O)c1cc(Oc2ccc3nc(NS(=O)(=O)c4cccc(C(F)(F)F)c4)nnc3c2)ccn1 [4-[3-(3-trifluoromethyl-benzenesulfonylamino)-benzo[1,2,4]triazin-7-yloxy]-pyridine-2-carboxylic acid methyl amide trifluoroacetate salt] | flat |  | not active at 5 uM | 
O=C(Nc1nnc2cc(Oc3ccnc(C(=O)NCCN4CCOCC4)c3)ccc2n1)c1ccc(OC(F)(F)F)cc1 [4-[3-(4-Trifluoromethoxy-benzoylamino)-benzo[1,2,4]triazin-7-yloxy]-pyridine-2-carboxylic acid (2-morpholin-4-yl-ethyl)-amide] |  |  | active at 5 uM | IC50 [3]: 1480 nM
CNC(=O)c1cc(Oc2ccc3nc(Nc4ccc(Cl)c(C(F)(F)F)c4)nnc3c2)ccn1 [4-[3-(4-chloro-3-trifluoromethyl-phenylamino)-benzo[1,2,4]triazin-7-yloxy]-pyridine-2-carboxylic acid methylamide trifluoroacetate salt] |  | 11.6 nM | not active at 5 uM | window [1]: ~20%
CNC(=O)c1cc(Oc2ccc3nc(NS(=O)(=O)c4ccc(Cl)s4)nnc3c2)ccn1 [4-[3-(5-chloro-thiophene-2-sulfonylamino)-benzo[1,2,4]triazin-7-yloxy]-pyridine-2-carboxylic acid methyl amide trifluoroacetate salt] |  | > 50000 nM | not active at 5 uM | 
CNC(=O)c1cc(Oc2ccc3nc(NS(=O)(=O)c4cc(Cl)ccc4OC)nnc3c2)ccn1 [4-[3-chloro-6-methoxy-benzenesulfonylamino)-benzo[1,2,4]triazin-7-yloxy]-pyridine-2-carboxylic acid methyl amide trifluoroacetate salt] |  | > 50000 nM | not active at 5 uM | 
CN(C)C(=O)c1cc(Oc2ccc3nc(N(C)C(=O)c4ccc(OC(F)(F)F)cc4)nnc3c2)ccn1 [4-{3-[Methyl-(4-trifluoromethoxy-benzoyl)-amino]-benzo[1,2,4]triazin-7-yloxy}-pyridine-2-carboxylic acid dimethyl amide] |  |  | partially active at 5 uM | 
N#CC(=C(/N)Sc1ccccc1N)/C(C#N)=C(\N)Sc1ccccc1N [Example U0126, reference compound] |  |  |  | IC50 ([2]; Homo sapiens, HUVEC, VEGF or FGF, read-out: reduction in p-Erk levels, IC50): 200 to 300 nM; p-MEK levels ([2]; VEGF or FGF): unaffected; IC50 ([5]; Homo sapiens, HUVEC, read-out: reduction in p-Erk levels, IC50): 200 to 300 nM; p-MEK levels [5]: unaffected
O=C(Nc1nnc2cc(Oc3ccncc3)ccc2n1)c1ccc(OC(F)(F)F)cc1 [N-[7-(Pyridin-4-yloxy)-benzo[1,2,4]triazin-3-yl]-4-trifluoromethoxy-benzamide] |  |  | not active at 5 uM | IC50 [3]: 7380 nM

Second part, led by results:

RAF-MEK assay (biochemical assay), result in words [1] | IC50 [1] | Compound | Western Blot [2] | other results
flat |  | CNC(=O)c1cc(Oc2ccc3nc(NC(=O)c4ccc(Cl)cc4Cl)nnc3c2)ccn1 [4-[2,4-dichloro-benzoylamino)-benzo[1,2,4]triazin-7-yloxy]-pyridine-2-carboxylic acid methyl amide trifluoroacetate salt] | not active at 5 uM | 
flat |  | CNC(=O)c1cc(Oc2ccc3nc(NC(=O)c4cccc(C(F)(F)F)c4Cl)nnc3c2)ccn1 [4-[3-(2-chloro-3-trifluoromethyl-benzoylamino)-benzo[1,2,4]triazin-7-yloxy]-pyridine-2-carboxylic acid methyl amide trifluoroacetate salt] | not active at 5 uM | 
 | 655 nM | CNC(=O)c1cc(Oc2ccc3nc(NC(=O)c4cccc(C(F)(F)F)c4)nnc3c2)ccn1 [4-[3-(3-trifluoromethyl-benzoylamino)-benzo[1,2,4]triazin-7-yloxy]-pyridine-2-carboxylic acid methyl amide trifluoroacetate salt] | not active at 5 uM | window [1]: ~70%
 | 10000 to 50000 nM | CNC(=O)c1cc(Oc2ccc3nc(NC(=O)c4ccc(Cl)c(C(F)(F)F)c4)nnc3c2)ccn1 [4-[3-(4-chloro-3-trifluoromethyl-benzoylamino)-benzo[1,2,4]triazin-7-yloxy]pyridine-2-carboxylic acid meth amide trifluoroacetate salt] | not active at 5 uM | 
 | 10000 to 50000 nM | CNC(=O)c1cc(Oc2ccc3nc(Nc4ccc(Cl)cc4)nnc3c2)ccn1 [4-[3-(4-chloro-phenylamino)-benzo[1,2,4]triazin-7-yloxy]-pyridine-2-carboxylic acid methylamide trifluoroacetate salt] | not active at 5 uM | IC50 [4]: 77 nM; window [1]: 100%
flat |  | CNC(=O)c1cc(Oc2ccc3nc(NC(=O)c4cccc(Cl)c4)nnc3c2)ccn1 [trifluoroacetate salt] | not active at 5 uM | 
